Reference: PMC10458458, “Characterization of Anticancer Effects of the Analogs of DJ4, a Novel Selective Inhibitor of ROCK and MRCK Kinases” (Pharmaceuticals, 2023)

Columns and labels:
[1] = biological target: ROCK2 (Homo sapiens, UniProt O75116); assay: Cell-free biochemical kinase activity assay (pMYPT1 immunoblot); parameters: purchased Invitrogen
Method: (§1) Cell-free biochemical kinase inhibitory activity of these compounds was evaluated at 1 µM concentration using the previously described ROCK1 kinase activity assay. Among the 27 analogs, we identified four analogs (DJ110, DJ-Allyl, DJE4, and DJ-Morpholine) with >50% inhibition of MYPT1 phosphorylation (Supplementary Figure S1). These four compounds were selected for further evaluation at 1 µM and 0.1 µM for their in vitro inhibitory activity against ROCK1, ROCK2, MRCKα, and MRCKβ kinases.
(§2) Cell-free biochemical kinase activity was assayed using published procedures. Briefly, recombinant ROCK1 (9.48 nM) or ROCK2 (8.26 nM; Invitrogen, Waltham, MA, USA) was incubated in the presence of 0.1 and 1 µM concentrations of DJ4 analogs or DMSO in ROCK-assay buffer at room temperature (RT) for 10 min. MRCKα and MRCKβ (2 ng/µL; Invitrogen) assays were performed in the assay buffer recommended by the manufacturer. Recombinant MYPT1 (20 ng/µL; Millipore) and ATP (5 µM) were added to initiate the reaction. The reaction was incubated at 30 °C for 20 min. Western blot analysis of these samples for phosphorylation of MYPT1 was performed as per the method mentioned in our earlier publication. Briefly, an equal amount of sample was loaded on Bis-Tris gel (Novex, Life Technologies, Carlsbad, CA, USA), proteins were electrophoresed and transferred to PVDF membranes. The blots were probed with anti-pMYPT1 (Thr696) or anti-MYPT1 (Millipore) antibodies.

[2] = tested on: MDA-MB-231 breast cancer cells; assay: Cell migration (scratch/wound healing) assay; assay type: cell-based, human; conditions: MDA-MB-231, 2.5 µM for 24 h, then 9 h migration in compound-free medium; vehicle = 100%
Method: Lastly, we examined the effects of these four analogs on migration of MDA-MB-231 breast cancer cells. Scratch assays were performed on cells treated with the various analogs for 24 h and then allowed to migrate into the scratched area for 9 h in compound-free media. […] Due to limited solubility, DJ-Morpholine was not tested for its effect on cell migration.
Figure 9 DJ4 analogs inhibit migration of MDA-MB-231 breast cancer cells. (A) MDA-MB-231 cells were treated with 2.5 µM concentration of DJ4 analogs for 24 h. At the end of the treatment period, uniform scratches were made across the monolayer of cells. The cells were allowed to migrate in the scratched area for 9 h in a compound-free medium. The cells were stained with calcein (green) and propidium iodide (red) to study live and dead cell populations in the scratched area. (B) The distance migrated by the treated cells was normalized to vehicle control treated cells. Statistical significance was determined by one-way ANOVA followed by Dunnett’s multiple comparison test. The error bars indicate SEM from triplicates of the experiment. *** p < 0.001. TEXT PRINTED IN THE PICTURE: (B) DMSO: % Migration: 100 | (B) DJ4: % Migration: 32 *** | (B) DJ110: % Migration: 28 *** | (B) DJ Allyl: % Migration: 36 *** | (B) DJE4: % Migration: 48 ***
Migration (scratch/wound healing) assays were performed using published procedures. Briefly, MDA-MB-231 cells were grown to confluence, and cells were treated with DMSO (vehicle control), DJ4, and its active analogs at 2.5 µM concentration for 24 h. At the end of the treatment period, uniform scratches were made in the monolayer of cells. The cells were allowed to migrate for 9 h in a compound-free medium. Light microscopic images were obtained at 0 h and 9 h after creating scratches. The width of the scratches was measured by using AxioVision software (AxioVision Inc., Carl Zeiss, Jena, Germany). The percentage of migration in each treatment at 9 h was calculated in comparison to 0 h readings. Furthermore, the percent migration in treatment groups was normalized to vehicle control (considering 100% migration). The experiment was performed in triplicate. Viability of the cells at the migration area was studied to confirm that the anti-migration effect of the analogs at the tested concentration and duration is independent of cell death. At the end of the migration period, cells were stained with calcein (Invitrogen, Waltham, MA, USA) and propidium iodide (Invitrogen, Waltham, MA, USA) dyes, as per the manufacturer’s protocol, which stain the live and dead cells, respectively.

[3] = biological target: ROCK1 (Homo sapiens, UniProt Q13464); assay: Cell-free biochemical kinase activity assay (pMYPT1 immunoblot); parameters: purchased Invitrogen; conditions: for inhibition at 1 µM: cell-free screen of 27 analogs, read-out: inhibition of MYPT1 phosphorylation
Method: as §1, §2
Figure S1. Screening of analogs in the in vitro kinase activity assay to identify […]
Kinase inhibitory activity of the 27 compounds was evaluated by in vitro cell-free biochemical kinase activity assay. The compounds (1 µM) were incubated with recombinant ROCK1 (9.48nM), recombinant MYPT1 (a kinase substrate, 84 nM) and ATP (25 µM). Phosphorylation status of the substrate (pMYPT1) was analyzed to study the […]

[4] = tested on: MDA-MB-231; assay: MTT cell growth assay, 48 h; assay type: cell-based, human; conditions: for IC50: Homo sapiens, MDA-MB-231, 48 h, 2000 cells/well, ±SE, read-out: IC50 from MTT assays
Method: However, as the concentration increased from 2.5 µM onwards, the effect was reversed. Similarly, DJ-Morpholine decreased the cell growth by ~30% at 0.6215 µM, while the effect remained saturated as the concentration increased. This trend was also observed in A549 lung cancer and A375M melanoma cells.
Figure 7 DJ4 analogs reduce cell growth in melanoma, breast, and lung cancer cells. MTT assay was performed to evaluate the effect of DJ4 analogs on cell growth after 48 h of treatment. IC50 values were calculated with nonlinear least squares regression curve fit by GraphPad prism. […] The error bars indicate SD from triplicates of the experiment.
The cytotoxic effect of DJ4 was studied in H1299, H226, A549, H522, H23, and H460 non-small cell lung cancer cells. The cells were seeded into 96-well plates with confluence ([…]). The cells were further treated with DMSO or DJ4 for 72 h. To study the effects of analogs, A549, A375M, and MDA-MB-231 cells were plated with low density (2000 cells/well) in a 96-well plate and grown overnight at 37 °C (with 5% CO2). Cells were treated with the analogs at the concentration of 0–10 µM for 48 h. At the end of the treatment period, cells were incubated with a tetrazolium dye MTT (3-(4,5-dimethylthiazol-2-yl)-2,5-diphenyltetrazolium bromide) reagent (Sigma) at 37 °C for 3 h to develop formazan crystals. The media was siphoned off and crystals were dissolved in DMSO and mixed gently on rocker for 5 min. Absorbance was read at 570 nm and 630 nm (background) wavelength. IC50 values were calculated from non-linear regression curve fit by using GraphPad Prism 5.0 software.

[5] = biological target: T1, MRCKα (Homo sapiens, UniProt Q5VT25); assay: Cell-free biochemical kinase activity assay (pMYPT1 immunoblot)
T1 construct: purchased Invitrogen
Method: as §1, §2

[6] = biological target: T2, MRCKβ (Homo sapiens, UniProt Q9Y5S2); assay: as above; conditions: 1 µM
T2 construct: purchased Invitrogen
Method: as §1, §2

T2 sequence (Q9Y5S2 whole entry): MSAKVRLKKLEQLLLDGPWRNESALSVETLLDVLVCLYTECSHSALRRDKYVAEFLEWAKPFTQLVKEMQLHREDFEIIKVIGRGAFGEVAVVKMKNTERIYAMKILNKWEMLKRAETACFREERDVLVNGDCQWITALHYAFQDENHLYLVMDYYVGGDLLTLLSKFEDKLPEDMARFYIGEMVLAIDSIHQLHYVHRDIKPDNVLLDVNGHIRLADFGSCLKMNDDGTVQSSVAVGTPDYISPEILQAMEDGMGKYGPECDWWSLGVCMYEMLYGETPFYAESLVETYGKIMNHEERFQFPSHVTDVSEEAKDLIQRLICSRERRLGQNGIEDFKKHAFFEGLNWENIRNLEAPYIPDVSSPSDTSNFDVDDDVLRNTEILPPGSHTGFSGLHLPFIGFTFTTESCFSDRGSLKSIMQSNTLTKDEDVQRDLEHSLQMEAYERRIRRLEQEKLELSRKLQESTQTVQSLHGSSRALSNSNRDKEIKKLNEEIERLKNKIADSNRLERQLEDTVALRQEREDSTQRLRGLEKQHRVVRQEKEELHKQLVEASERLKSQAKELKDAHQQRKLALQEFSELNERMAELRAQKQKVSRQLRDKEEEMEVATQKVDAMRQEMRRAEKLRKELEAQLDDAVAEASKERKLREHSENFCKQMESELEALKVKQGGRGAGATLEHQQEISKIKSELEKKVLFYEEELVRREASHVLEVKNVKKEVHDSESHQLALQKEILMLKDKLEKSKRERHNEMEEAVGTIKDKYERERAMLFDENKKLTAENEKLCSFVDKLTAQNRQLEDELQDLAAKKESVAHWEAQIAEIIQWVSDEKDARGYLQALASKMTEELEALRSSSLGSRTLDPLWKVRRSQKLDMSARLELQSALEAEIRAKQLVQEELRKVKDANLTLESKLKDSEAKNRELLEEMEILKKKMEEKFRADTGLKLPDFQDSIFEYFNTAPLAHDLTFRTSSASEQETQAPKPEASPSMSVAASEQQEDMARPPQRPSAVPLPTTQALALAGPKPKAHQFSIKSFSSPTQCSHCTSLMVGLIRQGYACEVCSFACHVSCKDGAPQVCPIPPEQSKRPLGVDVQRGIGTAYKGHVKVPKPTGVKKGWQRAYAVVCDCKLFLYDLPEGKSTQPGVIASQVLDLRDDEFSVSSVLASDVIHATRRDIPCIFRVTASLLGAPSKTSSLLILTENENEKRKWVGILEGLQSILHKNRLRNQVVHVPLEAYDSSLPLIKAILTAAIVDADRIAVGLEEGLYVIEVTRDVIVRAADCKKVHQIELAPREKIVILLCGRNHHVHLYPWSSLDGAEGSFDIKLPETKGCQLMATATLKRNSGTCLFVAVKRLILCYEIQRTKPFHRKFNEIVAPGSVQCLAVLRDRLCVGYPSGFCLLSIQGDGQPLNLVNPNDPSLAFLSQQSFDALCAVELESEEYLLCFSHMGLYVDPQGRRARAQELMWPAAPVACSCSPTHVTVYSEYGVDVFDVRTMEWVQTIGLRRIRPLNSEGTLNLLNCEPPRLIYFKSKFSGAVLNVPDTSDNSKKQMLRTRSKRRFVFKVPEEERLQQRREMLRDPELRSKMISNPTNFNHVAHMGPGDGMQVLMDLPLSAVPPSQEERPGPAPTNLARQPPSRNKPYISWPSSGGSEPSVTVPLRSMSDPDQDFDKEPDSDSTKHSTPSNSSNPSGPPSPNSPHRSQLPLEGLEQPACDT
T1 sequence (Q5VT25 whole entry): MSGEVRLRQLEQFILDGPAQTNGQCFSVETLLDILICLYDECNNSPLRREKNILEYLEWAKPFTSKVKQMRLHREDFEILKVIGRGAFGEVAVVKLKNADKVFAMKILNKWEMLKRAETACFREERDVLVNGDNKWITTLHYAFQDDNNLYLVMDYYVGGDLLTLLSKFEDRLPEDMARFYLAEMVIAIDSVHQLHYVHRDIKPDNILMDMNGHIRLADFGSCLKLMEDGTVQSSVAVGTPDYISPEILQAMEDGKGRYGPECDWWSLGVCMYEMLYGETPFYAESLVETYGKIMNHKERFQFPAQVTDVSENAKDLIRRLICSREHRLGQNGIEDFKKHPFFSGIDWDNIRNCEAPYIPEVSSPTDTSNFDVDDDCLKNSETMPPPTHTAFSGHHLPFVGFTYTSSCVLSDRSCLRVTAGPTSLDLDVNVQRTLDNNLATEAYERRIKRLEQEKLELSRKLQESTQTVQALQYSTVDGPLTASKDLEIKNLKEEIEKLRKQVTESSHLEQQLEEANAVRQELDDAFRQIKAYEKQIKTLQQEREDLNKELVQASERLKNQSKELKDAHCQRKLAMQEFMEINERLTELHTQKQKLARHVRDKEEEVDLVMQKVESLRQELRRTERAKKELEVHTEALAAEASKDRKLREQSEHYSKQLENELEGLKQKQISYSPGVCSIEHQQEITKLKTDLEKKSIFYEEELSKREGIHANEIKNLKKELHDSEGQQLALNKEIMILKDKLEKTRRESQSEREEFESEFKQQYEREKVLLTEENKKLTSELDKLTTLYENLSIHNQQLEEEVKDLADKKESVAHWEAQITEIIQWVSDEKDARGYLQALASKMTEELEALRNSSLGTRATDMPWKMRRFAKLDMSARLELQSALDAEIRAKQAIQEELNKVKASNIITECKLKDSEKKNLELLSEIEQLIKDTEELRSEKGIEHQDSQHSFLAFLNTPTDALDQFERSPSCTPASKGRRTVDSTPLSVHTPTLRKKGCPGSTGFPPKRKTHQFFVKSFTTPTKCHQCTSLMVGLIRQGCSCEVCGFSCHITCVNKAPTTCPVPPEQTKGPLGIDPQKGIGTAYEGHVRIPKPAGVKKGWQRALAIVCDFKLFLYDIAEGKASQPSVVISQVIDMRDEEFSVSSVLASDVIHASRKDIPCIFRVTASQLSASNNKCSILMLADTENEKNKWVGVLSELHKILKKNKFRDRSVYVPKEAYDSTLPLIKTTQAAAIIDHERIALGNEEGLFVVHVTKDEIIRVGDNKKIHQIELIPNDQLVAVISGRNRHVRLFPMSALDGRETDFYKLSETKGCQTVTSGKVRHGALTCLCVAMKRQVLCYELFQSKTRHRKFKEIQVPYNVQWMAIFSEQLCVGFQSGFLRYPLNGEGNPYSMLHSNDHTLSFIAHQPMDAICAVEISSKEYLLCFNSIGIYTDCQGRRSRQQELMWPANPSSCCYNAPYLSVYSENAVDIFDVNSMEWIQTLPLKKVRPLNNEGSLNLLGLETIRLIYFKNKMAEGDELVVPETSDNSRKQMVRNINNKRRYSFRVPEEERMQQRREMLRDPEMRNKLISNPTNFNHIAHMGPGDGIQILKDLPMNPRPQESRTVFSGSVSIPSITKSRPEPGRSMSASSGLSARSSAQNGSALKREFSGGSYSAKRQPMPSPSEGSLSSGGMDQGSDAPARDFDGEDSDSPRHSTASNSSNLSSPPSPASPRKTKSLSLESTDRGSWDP
Chain of ROCK1 (Q13464 whole entry): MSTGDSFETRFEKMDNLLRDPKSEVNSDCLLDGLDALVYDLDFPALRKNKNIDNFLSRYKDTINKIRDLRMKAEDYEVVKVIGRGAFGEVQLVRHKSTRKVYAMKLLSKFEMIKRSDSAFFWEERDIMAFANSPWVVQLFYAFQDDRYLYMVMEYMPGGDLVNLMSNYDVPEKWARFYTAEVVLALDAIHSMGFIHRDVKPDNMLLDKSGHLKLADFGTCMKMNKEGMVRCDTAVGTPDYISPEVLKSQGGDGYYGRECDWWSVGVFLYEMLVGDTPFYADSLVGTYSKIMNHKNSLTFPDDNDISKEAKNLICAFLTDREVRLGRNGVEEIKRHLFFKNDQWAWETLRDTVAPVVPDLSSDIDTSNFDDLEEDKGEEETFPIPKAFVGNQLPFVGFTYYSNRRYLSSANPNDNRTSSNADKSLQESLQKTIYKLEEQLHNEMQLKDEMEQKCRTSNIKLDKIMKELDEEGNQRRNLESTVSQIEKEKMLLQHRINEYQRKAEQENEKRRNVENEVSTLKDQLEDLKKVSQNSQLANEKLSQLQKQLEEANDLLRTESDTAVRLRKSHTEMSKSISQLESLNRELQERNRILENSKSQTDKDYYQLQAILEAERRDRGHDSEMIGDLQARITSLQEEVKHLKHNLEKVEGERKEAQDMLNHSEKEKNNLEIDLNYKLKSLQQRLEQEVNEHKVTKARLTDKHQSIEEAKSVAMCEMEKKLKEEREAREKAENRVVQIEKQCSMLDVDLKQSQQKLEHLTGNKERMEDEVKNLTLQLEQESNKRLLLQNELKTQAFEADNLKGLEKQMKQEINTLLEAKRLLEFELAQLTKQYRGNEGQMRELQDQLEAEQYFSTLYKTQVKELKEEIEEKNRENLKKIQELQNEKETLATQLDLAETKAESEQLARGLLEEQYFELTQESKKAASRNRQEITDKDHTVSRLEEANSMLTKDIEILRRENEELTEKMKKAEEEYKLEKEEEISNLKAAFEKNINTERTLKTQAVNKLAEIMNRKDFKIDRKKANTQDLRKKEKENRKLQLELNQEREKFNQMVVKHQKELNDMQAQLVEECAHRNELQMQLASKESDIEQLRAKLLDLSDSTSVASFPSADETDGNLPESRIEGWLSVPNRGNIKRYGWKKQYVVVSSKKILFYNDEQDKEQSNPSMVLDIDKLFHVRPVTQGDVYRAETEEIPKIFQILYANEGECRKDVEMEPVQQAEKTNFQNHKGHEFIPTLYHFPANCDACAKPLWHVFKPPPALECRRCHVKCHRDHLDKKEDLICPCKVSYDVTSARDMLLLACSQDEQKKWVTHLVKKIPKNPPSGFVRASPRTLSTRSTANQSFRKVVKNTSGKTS

Row | Structure (SMILES) | inhibition of kinase activity (qualitative immunoblot) ([1]; ROCK2, 0.1 µM) | inhibition of kinase activity (qualitative immunoblot) ([1]; ROCK2, 1 µM) | % Migration compared to control [2] [%] | inhibition of kinase activity (qualitative immunoblot) ([3]; ROCK1, 0.1 µM) | inhibition of kinase activity (qualitative immunoblot) ([3]; ROCK1, 1 µM) | IC50 [4] [µM] | inhibition of kinase activity (qualitative immunoblot) ([5]; 0.1 µM) | inhibition of kinase activity (qualitative immunoblot) ([5]; 1 µM) | inhibition of kinase activity (qualitative immunoblot) [6] | inhibition at 1 µM ([3]; ROCK1, 1 µM) [%] | decrease in cell growth ([4]; MDA-MB-231, 0.6215 µM, 48 h, effect saturated at higher concentrations)
1 | O=C1N/C(=N\CCc2ccccc2)S/C1=C/c1c[nH]c2ncccc12 [DJ4] | ineffective | significantly inhibit | 32 | ineffective | significantly inhibit | 2.3 ± 0.23 | ineffective | significantly inhibit | significantly inhibit |  | 
2 | O=C1N/C(=N\Cc2ccccc2)S/C1=C/c1c[nH]c2ncccc12 [DJ110] | significantly inhibited | significantly inhibit | 28 | significantly inhibited | significantly inhibit | 0.65 ± 0.07 | significantly inhibited | significantly inhibit | significantly inhibit | > 50 | 
3 | C=CC/N=C1\NC(=O)/C(=C\c2c[nH]c3ncccc23)S1 [DJ-Allyl] |  | almost completely inhibited | 36 |  | almost completely inhibited | 4.1 ± 1.23 |  | minimal inhibition | minimal inhibition | > 50 | 
4 | O=C1N/C(=N\CCN2CCOCC2)S/C1=C/c1c[nH]c2ncccc12 [DJ-Morpholine] |  | almost completely inhibited |  |  | almost completely inhibited | > 10 |  | minimal inhibition | minimal inhibition | > 50 | ~ 30%
5 | CC/N=C1\NC(=O)/C(=C\c2c[nH]c3ncccc23)S1 [DJE4] |  | almost completely inhibited | 48 |  | almost completely inhibited | 5.9 ± 1.63 |  | minimal inhibition | minimal inhibition | > 50 | 
